In ChEMBL document CHEMBL4507304, “Data for DCP probe TP-021” (2021):

Assays:
[1] = target: G protein-coupled receptor kinase 3 (Homo sapiens) (UniProt P35626); details: Compound concentration 1000.0 nM
[2] = target: MAP/microtubule affinity-regulating kinase 3 (Homo sapiens) (UniProt P27448); details: Compound concentration 1000.0 nM
[3] = target: Histamine H3 receptor (Homo sapiens) (UniProt Q9Y5N1); details: Compound concentration 10.0 uM
[4] = target: Serine/threonine-protein kinase 3 (Homo sapiens) (UniProt Q13188); details: Compound concentration 1000.0 nM
[5] = target: Megakaryocyte-associated tyrosine-protein kinase (Homo sapiens) (UniProt P42679); details: Compound concentration 1000.0 nM
[6] = target: Cyclin-dependent kinase 4 (Homo sapiens) (UniProt P11802); details: Compound concentration 1000.0 nM
[7] = target: Mitogen-activated protein kinase 13 (Homo sapiens) (UniProt O15264); details: Compound concentration 1000.0 nM
[8] = target: Macrophage-stimulating protein receptor (Homo sapiens) (UniProt Q04912); details: Compound concentration 1000.0 nM
[9] = target: Calcium/calmodulin-dependent protein kinase type II subunit alpha (Homo sapiens) (UniProt Q9UQM7); details: Compound concentration 1000.0 nM
[10] = test system: Tyrosine-protein kinase ABL1 (Homo sapiens), P00519 [F317I]; details: Compound concentration 1000.0 nM
[11] = target: Serine/threonine-protein kinase PknB (Mycobacterium tuberculosis) (UniProt P9WI81); details: Compound concentration 1000.0 nM
[12] = target: Serine/threonine-protein kinase PLK4 (Homo sapiens) (UniProt O00444); details: Compound concentration 1000.0 nM
[13] = target: Dual specificity protein kinase CLK2 (Homo sapiens) (UniProt P49760); details: Compound concentration 1000.0 nM
[14] = target: Homeodomain-interacting protein kinase 1 (Homo sapiens) (UniProt Q86Z02); details: Compound concentration 1000.0 nM
[15] = test system: Mast/stem cell growth factor receptor Kit (Homo sapiens), P10721 [V559D,V654A]; details: Compound concentration 1000.0 nM
[16] = target: 5-hydroxytryptamine receptor 1B (Homo sapiens) (UniProt P28222); details: Compound concentration 10.0 uM
[17] = target: Phosphatidylinositol 5-phosphate 4-kinase type-2 beta (Homo sapiens) (UniProt P78356); details: Compound concentration 1000.0 nM
[18] = target: Receptor-type tyrosine-protein kinase FLT3 (Homo sapiens) (UniProt P36888); details: Compound concentration 1000.0 nM
[19] = target: Leukocyte tyrosine kinase receptor (Homo sapiens) (UniProt P29376); details: Compound concentration 1000.0 nM
[20] = target: Serine/threonine-protein kinase SIK3 (Homo sapiens) (UniProt Q9Y2K2); details: Compound concentration 1000.0 nM
[21] = target: Phosphatidylinositol 4,5-bisphosphate 3-kinase catalytic subunit gamma isoform (Homo sapiens) (UniProt P48736); details: Compound concentration 1000.0 nM
[22] = target: Focal adhesion kinase 1 (Homo sapiens) (UniProt Q05397); details: Compound concentration 1000.0 nM
[23] = target: Phosphatidylinositol 4,5-bisphosphate 3-kinase catalytic subunit alpha isoform (Homo sapiens) (UniProt P42336); details: Compound concentration 1000.0 nM
[24] = target: Discoidin domain-containing receptor 2 (Homo sapiens) (UniProt Q16832); details: Compound concentration 1000.0 nM
[25] = test system: Mast/stem cell growth factor receptor Kit (Homo sapiens), P10721 [D816H]; details: Compound concentration 1000.0 nM
[26] = target: SRSF protein kinase 3 (Homo sapiens) (UniProt Q9UPE1); details: Compound concentration 1000.0 nM
[27] = target: Serine/threonine-protein kinase Nek2 (Homo sapiens) (UniProt P51955); details: Compound concentration 1000.0 nM
[28] = target: Tyrosine-protein kinase JAK1 (Homo sapiens) (UniProt P23458); details: Compound concentration 1000.0 nM
[29] = target: Serine/threonine-protein kinase NLK (Homo sapiens) (UniProt Q9UBE8); details: Compound concentration 1000.0 nM
[30] = test system: Tyrosine-protein kinase ABL1 (Homo sapiens), P00519 [F317L]; details: Compound concentration 1000.0 nM
[31] = test system: Hepatocyte growth factor receptor (Homo sapiens), P08581 [Y1235D]; details: Compound concentration 1000.0 nM
[32] = target: Platelet-derived growth factor receptor alpha (Homo sapiens) (UniProt P16234); details: Compound concentration 1000.0 nM
[33] = target: Death-associated protein kinase 2 (Homo sapiens) (UniProt Q9UIK4); details: Compound concentration 1000.0 nM
[34] = target: Calcium/calmodulin-dependent protein kinase type 1G (Homo sapiens) (UniProt Q96NX5); details: Compound concentration 1000.0 nM
[35] = target: Serine/threonine-protein kinase Nek6 (Homo sapiens) (UniProt Q9HC98); details: Compound concentration 1000.0 nM
[36] = target: STE20/SPS1-related proline-alanine-rich protein kinase (Homo sapiens) (UniProt Q9UEW8); details: Compound concentration 1000.0 nM
[37] = target: Mitogen-activated protein kinase kinase kinase 12 (Homo sapiens) (UniProt Q12852); details: Compound concentration 1000.0 nM
[38] = target: Alpha-1B adrenergic receptor (Homo sapiens) (UniProt P35368); details: Compound concentration 10.0 uM
[39] = target: Tyrosine-protein kinase JAK3 (Homo sapiens) (UniProt P52333); details: Compound concentration 1000.0 nM
[40] = target: Ephrin type-A receptor 2 (Homo sapiens) (UniProt P29317); details: Compound concentration 1000.0 nM
[41] = test system: ALK tyrosine kinase receptor (Homo sapiens), Q9UM73 [C1156Y]; details: Compound concentration 1000.0 nM
[42] = target: Aurora kinase C (Homo sapiens) (UniProt Q9UQB9); details: Compound concentration 1000.0 nM
[43] = target: Alpha-1D adrenergic receptor (Homo sapiens) (UniProt P25100); details: Compound concentration 10.0 uM
[44] = target: Dual serine/threonine and tyrosine protein kinase (Homo sapiens) (UniProt Q6XUX3); details: Compound concentration 1000.0 nM
[45] = target: Receptor tyrosine-protein kinase erbB-3 (Homo sapiens) (UniProt P21860); details: Compound concentration 1000.0 nM

Sequence of Mast/stem cell growth factor receptor Kit (Homo sapiens), P10721 [D816H] (P10721 whole entry D816H): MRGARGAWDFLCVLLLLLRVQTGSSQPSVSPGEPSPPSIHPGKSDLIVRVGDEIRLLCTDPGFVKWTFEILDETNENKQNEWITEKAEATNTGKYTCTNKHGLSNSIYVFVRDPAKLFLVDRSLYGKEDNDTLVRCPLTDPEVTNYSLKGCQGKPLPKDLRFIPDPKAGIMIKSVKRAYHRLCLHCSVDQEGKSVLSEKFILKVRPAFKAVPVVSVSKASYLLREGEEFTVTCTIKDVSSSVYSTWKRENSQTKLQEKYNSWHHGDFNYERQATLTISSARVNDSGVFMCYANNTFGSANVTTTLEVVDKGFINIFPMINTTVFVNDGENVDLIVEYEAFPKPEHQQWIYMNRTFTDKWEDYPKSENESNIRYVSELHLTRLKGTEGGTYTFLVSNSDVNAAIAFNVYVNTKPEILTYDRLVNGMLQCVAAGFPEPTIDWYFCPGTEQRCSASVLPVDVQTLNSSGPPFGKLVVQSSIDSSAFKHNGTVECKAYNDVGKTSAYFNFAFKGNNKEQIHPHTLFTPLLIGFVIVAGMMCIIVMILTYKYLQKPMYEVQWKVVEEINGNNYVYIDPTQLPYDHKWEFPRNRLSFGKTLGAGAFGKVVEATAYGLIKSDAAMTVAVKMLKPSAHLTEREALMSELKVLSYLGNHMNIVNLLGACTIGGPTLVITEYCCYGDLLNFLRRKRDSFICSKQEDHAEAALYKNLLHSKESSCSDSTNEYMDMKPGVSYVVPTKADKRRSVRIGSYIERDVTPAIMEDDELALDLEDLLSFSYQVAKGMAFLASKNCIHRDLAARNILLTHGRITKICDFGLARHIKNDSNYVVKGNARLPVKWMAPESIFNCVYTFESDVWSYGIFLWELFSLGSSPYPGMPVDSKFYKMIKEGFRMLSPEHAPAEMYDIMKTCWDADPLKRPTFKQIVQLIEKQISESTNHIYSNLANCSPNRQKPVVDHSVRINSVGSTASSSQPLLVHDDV
Sequence of Serine/threonine-protein kinase 3 (Homo sapiens) (Q13188 whole entry): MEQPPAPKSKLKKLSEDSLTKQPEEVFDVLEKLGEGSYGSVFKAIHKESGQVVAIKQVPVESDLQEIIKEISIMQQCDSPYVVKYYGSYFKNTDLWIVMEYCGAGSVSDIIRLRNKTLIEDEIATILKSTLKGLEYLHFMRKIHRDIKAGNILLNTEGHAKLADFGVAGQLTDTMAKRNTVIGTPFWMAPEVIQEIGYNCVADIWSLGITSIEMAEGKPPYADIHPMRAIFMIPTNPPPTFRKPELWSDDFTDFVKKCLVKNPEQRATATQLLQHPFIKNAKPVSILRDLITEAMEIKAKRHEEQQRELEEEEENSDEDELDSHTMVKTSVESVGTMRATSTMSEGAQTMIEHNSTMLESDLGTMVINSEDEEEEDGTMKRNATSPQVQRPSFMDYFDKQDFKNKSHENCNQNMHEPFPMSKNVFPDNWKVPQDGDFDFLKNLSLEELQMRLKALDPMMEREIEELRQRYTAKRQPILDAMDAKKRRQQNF
Sequence of Discoidin domain-containing receptor 2 (Homo sapiens) (Q16832 whole entry, the tested form may be a part): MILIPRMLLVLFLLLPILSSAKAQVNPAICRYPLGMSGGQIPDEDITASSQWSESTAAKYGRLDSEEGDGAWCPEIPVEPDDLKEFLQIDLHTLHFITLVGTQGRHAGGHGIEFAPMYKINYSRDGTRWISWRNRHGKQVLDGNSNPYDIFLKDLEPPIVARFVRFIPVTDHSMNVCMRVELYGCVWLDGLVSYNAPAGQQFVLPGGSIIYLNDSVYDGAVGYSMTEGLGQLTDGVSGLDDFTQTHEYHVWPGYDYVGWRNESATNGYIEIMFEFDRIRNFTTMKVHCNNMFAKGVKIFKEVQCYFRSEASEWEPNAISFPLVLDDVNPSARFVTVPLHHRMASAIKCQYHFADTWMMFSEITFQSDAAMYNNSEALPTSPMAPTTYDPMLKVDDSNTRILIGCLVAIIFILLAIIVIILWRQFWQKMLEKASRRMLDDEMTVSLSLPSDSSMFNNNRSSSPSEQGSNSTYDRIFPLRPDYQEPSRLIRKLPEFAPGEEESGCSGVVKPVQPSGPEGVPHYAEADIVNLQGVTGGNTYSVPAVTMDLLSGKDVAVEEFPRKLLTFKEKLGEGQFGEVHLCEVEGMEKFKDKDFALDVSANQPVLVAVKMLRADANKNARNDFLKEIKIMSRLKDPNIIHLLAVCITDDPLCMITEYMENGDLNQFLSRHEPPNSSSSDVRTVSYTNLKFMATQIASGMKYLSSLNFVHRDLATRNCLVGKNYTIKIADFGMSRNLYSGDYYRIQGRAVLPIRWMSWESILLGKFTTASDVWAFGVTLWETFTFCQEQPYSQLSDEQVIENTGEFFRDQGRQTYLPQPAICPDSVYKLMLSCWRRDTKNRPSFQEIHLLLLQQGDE
Sequence of Calcium/calmodulin-dependent protein kinase type II subunit alpha (Homo sapiens) (Q9UQM7 whole entry): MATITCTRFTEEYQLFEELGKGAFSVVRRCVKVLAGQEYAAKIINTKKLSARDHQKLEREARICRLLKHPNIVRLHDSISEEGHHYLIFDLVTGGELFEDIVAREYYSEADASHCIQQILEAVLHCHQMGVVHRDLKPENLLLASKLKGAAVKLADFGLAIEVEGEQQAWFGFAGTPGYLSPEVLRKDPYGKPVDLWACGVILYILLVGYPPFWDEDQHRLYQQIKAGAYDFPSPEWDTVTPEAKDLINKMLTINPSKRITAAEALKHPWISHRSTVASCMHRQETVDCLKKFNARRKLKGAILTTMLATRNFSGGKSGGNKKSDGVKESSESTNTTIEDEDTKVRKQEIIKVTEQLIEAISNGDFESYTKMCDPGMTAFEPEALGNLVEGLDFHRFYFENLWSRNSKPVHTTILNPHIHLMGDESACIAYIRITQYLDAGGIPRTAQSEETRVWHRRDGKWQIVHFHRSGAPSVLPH
Sequence of Serine/threonine-protein kinase Nek2 (Homo sapiens) (P51955 whole entry): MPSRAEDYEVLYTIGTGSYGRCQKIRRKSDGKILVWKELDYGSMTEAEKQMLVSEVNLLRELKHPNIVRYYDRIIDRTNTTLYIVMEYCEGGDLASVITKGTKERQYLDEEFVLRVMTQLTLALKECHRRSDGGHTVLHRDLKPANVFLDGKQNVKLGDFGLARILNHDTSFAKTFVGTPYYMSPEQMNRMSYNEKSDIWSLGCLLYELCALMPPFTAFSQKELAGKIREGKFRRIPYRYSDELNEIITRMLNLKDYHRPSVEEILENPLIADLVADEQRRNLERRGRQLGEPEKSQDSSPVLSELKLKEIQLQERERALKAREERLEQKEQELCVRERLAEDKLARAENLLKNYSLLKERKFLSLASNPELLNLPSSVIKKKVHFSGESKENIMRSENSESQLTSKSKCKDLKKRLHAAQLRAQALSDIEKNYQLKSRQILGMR
Sequence of Tyrosine-protein kinase ABL1 (Homo sapiens), P00519 [F317I] (P00519 whole entry F317I): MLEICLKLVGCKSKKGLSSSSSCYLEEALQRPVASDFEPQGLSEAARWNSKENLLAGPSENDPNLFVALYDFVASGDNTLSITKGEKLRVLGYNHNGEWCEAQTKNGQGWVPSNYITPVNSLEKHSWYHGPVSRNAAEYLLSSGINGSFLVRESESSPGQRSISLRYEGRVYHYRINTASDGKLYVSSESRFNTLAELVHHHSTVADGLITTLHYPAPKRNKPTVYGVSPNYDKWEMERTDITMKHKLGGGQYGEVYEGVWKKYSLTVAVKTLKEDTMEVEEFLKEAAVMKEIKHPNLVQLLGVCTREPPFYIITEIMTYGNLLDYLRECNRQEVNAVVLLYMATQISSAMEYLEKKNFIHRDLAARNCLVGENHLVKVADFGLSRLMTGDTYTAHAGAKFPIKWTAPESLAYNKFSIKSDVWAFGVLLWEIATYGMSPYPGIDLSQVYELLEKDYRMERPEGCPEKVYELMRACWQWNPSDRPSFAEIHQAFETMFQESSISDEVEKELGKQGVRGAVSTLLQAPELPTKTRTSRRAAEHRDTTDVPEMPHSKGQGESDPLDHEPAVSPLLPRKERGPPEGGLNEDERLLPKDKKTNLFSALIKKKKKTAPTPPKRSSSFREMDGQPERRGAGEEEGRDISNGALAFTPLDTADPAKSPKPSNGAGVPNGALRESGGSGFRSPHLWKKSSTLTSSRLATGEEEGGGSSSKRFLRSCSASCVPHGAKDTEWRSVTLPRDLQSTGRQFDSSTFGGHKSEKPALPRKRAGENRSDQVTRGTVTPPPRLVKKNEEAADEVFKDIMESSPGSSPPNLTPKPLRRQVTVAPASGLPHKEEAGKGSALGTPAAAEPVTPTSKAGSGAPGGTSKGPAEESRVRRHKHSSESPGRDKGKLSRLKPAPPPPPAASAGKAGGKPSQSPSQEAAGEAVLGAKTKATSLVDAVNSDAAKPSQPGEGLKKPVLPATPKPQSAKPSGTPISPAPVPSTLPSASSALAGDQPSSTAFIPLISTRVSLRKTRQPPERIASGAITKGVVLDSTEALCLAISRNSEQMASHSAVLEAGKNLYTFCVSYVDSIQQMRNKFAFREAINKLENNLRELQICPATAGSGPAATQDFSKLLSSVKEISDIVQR
Sequence of Aurora kinase C (Homo sapiens) (Q9UQB9 whole entry): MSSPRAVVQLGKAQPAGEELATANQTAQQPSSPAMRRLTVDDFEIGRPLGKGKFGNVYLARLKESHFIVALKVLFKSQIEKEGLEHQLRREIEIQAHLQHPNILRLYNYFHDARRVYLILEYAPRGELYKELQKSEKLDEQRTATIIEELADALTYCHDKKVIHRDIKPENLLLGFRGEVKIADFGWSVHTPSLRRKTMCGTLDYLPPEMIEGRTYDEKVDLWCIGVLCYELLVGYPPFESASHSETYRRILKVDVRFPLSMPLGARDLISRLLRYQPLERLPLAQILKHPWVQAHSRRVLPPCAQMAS
Sequence of Mitogen-activated protein kinase 13 (Homo sapiens) (O15264 whole entry): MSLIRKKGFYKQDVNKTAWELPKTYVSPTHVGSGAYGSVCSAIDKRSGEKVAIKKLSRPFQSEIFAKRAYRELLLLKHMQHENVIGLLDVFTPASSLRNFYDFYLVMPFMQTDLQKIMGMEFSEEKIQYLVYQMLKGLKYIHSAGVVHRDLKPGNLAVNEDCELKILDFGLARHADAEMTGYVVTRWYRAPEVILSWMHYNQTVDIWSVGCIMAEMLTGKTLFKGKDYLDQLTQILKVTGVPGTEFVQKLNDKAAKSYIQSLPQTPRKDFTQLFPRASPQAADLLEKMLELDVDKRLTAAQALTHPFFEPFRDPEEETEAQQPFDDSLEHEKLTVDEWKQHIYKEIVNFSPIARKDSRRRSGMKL

N#Cc1ccc(Nc2ccc3[nH]c(=O)[nH]c3c2)c(Cl)c1
inactive: residual activity [1] 100% | residual activity [2] 100% | inhibition [3] 8.47% | residual activity [4] 100% | residual activity [5] 100% | residual activity [6] 91% | residual activity [7] 100% | residual activity [8] 100% | residual activity [9] 84% | residual activity [10] 92% | residual activity [11] 100% | residual activity [12] 87% | residual activity [13] 100% | residual activity [14] 82% | residual activity [15] 96% | inhibition [16] 6.7% | residual activity [17] 74% | residual activity [18] 100% | residual activity [19] 100% | residual activity [20] 75% | residual activity [21] 92% | residual activity [22] 100% | residual activity [23] 77% | residual activity [24] 100% | residual activity [25] 99% | residual activity [26] 100% | residual activity [27] 93% | residual activity [28] 97% | residual activity [29] 100% | residual activity [30] 100% | residual activity [31] 95% | residual activity [32] 100% | residual activity [33] 92% | residual activity [34] 100% | residual activity [35] 100% | residual activity [36] 100% | residual activity [37] 100% | inhibition [38] 10% | residual activity [39] 100% | residual activity [40] 84% | residual activity [41] 100% | residual activity [42] 100% | inhibition [43] -5.71% | residual activity [44] 75% | residual activity [45] 97%

O=C1CCc2cc(Nc3cc(OC4CCOCC4)c([N+](=O)[O-])cc3Cl)ccc2N1
inactive: residual activity [1] 100% | residual activity [2] 100% | inhibition [3] 15.1% | residual activity [4] 100% | residual activity [5] 100% | residual activity [6] 90% | residual activity [7] 100% | residual activity [8] 100% | residual activity [9] 85% | residual activity [10] 100% | residual activity [11] 94% | residual activity [12] 86% | residual activity [13] 99% | residual activity [14] 95% | residual activity [15] 92% | inhibition [16] 14.3% | residual activity [17] 100% | residual activity [18] 90% | residual activity [19] 100% | residual activity [20] 75% | residual activity [21] 75% | residual activity [22] 100% | residual activity [23] 79% | residual activity [24] 100% | residual activity [25] 100% | residual activity [26] 100% | residual activity [27] 95% | residual activity [28] 100% | residual activity [29] 100% | residual activity [30] 74% | residual activity [31] 100% | residual activity [32] 97% | residual activity [33] 79% | residual activity [34] 100% | residual activity [35] 96% | residual activity [36] 100% | residual activity [37] 100% | inhibition [38] 17.2% | residual activity [39] 96% | residual activity [40] 75% | residual activity [41] 91% | residual activity [42] 100% | inhibition [43] 3.49% | residual activity [44] 90% | residual activity [45] 98%
